Measurements published in PubChem BioAssay (NCI).
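96-well plates; 48 h exposure; 5 concentrations. Endpoints by linear interpolation between flanking doses. Not reached: highest tested concentration assigned. At the GI50, growth is halved. At the TGI there is no net growth.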

Key:
Assay in all cases: DTP human tumour cell line panel, 48 h
[1] = test system: M14 melanoma
[2] = test system: NCI-H460 lung
[3] = test system: SF-268 CNS
[4] = test system: NCI-H522 lung
[5] = test system: PC-3 prostate
[6] = test system: SF-539 CNS
[7] = test system: OVCAR-3 ovarian
[8] = test system: CCRF-CEM leukemia
[9] = test system: K-562 leukemia
[10] = test system: A498 renal
[11] = test system: MCF7 breast
[12] = test system: HCT-116 colon
[13] = test system: CAKI-1 renal
[14] = test system: UACC-257 melanoma
[15] = test system: HT29 colon
[16] = test system: SK-MEL-2 melanoma
[17] = test system: RPMI-8226 leukemia
[18] = test system: SF-295 CNS
[19] = test system: A549 NSCLC
[20] = test system: DU-145 prostate
[21] = test system: HOP-92 NSCLC
[22] = test system: NCI-H23 lung
[23] = test system: SW-620 colon
[24] = test system: TK-10 renal
[25] = test system: HOP-62 NSCLC
[26] = test system: NCI/ADR-RES ovarian
[27] = test system: IGROV1 ovarian
[28] = test system: SK-OV-3 ovarian
[29] = test system: HS 578T breast
[30] = test system: SK-MEL-28 melanoma
[31] = test system: MOLT-4 leukemia
[32] = test system: SR leukemia
[33] = test system: U251 CNS
[34] = test system: KM12 colon
[35] = test system: 786-0 renal
[36] = test system: SK-MEL-5 melanoma
[37] = test system: SN12C renal
[38] = test system: UO-31 renal
[39] = test system: NCI-H226 lung
[40] = test system: MDA-MB-231 breast
[41] = test system: MDA-MB-435
[42] = test system: HCC-2998 colon
[43] = test system: T-47D breast
[44] = test system: UACC-62 melanoma
[45] = test system: OVCAR-5 ovarian
[46] = test system: MALME-3M melanoma
[47] = test system: LOX IMVI melanoma
[48] = test system: RXF 393 renal
[49] = test system: BT-549 breast
[50] = test system: SNB-75 CNS
[51] = test system: SNB-19 CNS
[52] = test system: OVCAR-8 ovarian
[53] = test system: ACHN renal
[54] = test system: HCT-15 colon
[55] = test system: COLO 205 colon
[56] = test system: OVCAR-4 ovarian
[57] = test system: EKVX NSCLC
[58] = test system: HL-60(TB) leukemia

O=C(Nc1ccc(OCc2nnc(-c3ccc(Cl)cc3)o2)c(F)c1)Nc1ccc(Cl)c(Cl)c1
GI50 [1]: 11.3 µM | TGI [1]: > 100 µM | GI50 [2]: 3.9 µM | TGI [2]: 25 µM | GI50 [3]: 7.58 µM | TGI [3]: 35.8 µM | GI50 [4]: 6.06 µM | TGI [4]: 52.1 µM | GI50 [5]: 6.16 µM | TGI [5]: 29.9 µM | GI50 [6]: 6.92 µM | TGI [6]: 27.7 µM | GI50 [7]: 10.7 µM | TGI [7]: 35 µM | GI50 [8]: 7.09 µM | TGI [8]: 68.6 µM | GI50 [9]: 3.77 µM | TGI [9]: > 100 µM | GI50 [10]: 1.56 µM | TGI [10]: 21.9 µM | GI50 [11]: 5.62 µM | TGI [11]: > 100 µM | GI50 [12]: 5.01 µM | TGI [12]: > 100 µM | GI50 [13]: 21.7 µM | TGI [13]: > 100 µM | GI50 [14]: 10.6 µM | TGI [14]: > 100 µM | GI50 [15]: 6.24 µM | TGI [15]: > 100 µM | GI50 [16]: 9.23 µM | TGI [16]: 37 µM | GI50 [17]: 10.7 µM | TGI [17]: 56.6 µM | GI50 [18]: 3.63 µM | TGI [18]: 19.5 µM | GI50 [19]: 6.07 µM | TGI [19]: 47.1 µM | GI50 [20]: 5.07 µM | TGI [20]: 21.3 µM | GI50 [21]: 2.39 µM | TGI [21]: 8.27 µM | GI50 [22]: 4.62 µM | TGI [22]: 20.6 µM | GI50 [23]: 6.77 µM | TGI [23]: 67.9 µM | GI50 [24]: 4.78 µM | TGI [24]: 22.9 µM | GI50 [25]: 3.6 µM | TGI [25]: 19.5 µM | GI50 [26]: 10 µM | TGI [26]: 41.3 µM | GI50 [27]: 12.2 µM | TGI [27]: 52.3 µM | GI50 [28]: 9.09 µM | TGI [28]: 40.6 µM | GI50 [29]: 1.95 µM | TGI [29]: 8.53 µM | GI50 [30]: 5.17 µM | TGI [30]: 28.6 µM | GI50 [31]: 12.9 µM | TGI [31]: 53.1 µM | GI50 [32]: 2.09 µM | TGI [32]: 7.57 µM | GI50 [33]: 4.08 µM | TGI [33]: 25 µM | GI50 [34]: 16.5 µM | TGI [34]: > 100 µM | GI50 [35]: 12.5 µM | TGI [35]: 42.7 µM | GI50 [36]: 6.6 µM | TGI [36]: 45.4 µM | GI50 [37]: 11.3 µM | TGI [37]: > 100 µM | GI50 [38]: 13.5 µM | TGI [38]: 49.3 µM | GI50 [39]: 5.94 µM | TGI [39]: 56.1 µM | GI50 [40]: 5.39 µM | TGI [40]: 41.1 µM | GI50 [41]: 9.55 µM | TGI [41]: > 100 µM | GI50 [42]: 20.7 µM | TGI [42]: > 100 µM | GI50 [43]: 2.83 µM | TGI [43]: 26.5 µM | GI50 [44]: 5.84 µM | TGI [44]: 39 µM | GI50 [45]: 22.5 µM | TGI [45]: > 100 µM | GI50 [46]: 2.76 µM | TGI [46]: 8.77 µM | GI50 [47]: 3.3 µM | TGI [47]: 13.2 µM | GI50 [48]: 6.78 µM | TGI [48]: 24.2 µM | GI50 [49]: 7.11 µM | TGI [49]: 29.7 µM | GI50 [50]: 1.72 µM | TGI [50]: 4.88 µM | GI50 [51]: 5.97 µM | TGI [51]: 45.5 µM | GI50 [52]: 8.56 µM | TGI [52]: > 100 µM | GI50 [53]: 4.95 µM | TGI [53]: 62.6 µM | GI50 [54]: 15 µM | TGI [54]: > 100 µM | GI50 [55]: 6.94 µM | TGI [55]: > 100 µM | GI50 [56]: 2.99 µM | TGI [56]: 14.1 µM

COc1ccccc1N1CCN(CC(O)COc2c(Br)c(Br)c(Br)c3c2OC(C)(C)C3)CC1 (centres undefined)
GI50 [1]: 13.2 µM | TGI [1]: 37.5 µM | GI50 [2]: 8.78 µM | TGI [2]: 54.4 µM | GI50 [3]: 33.3 µM | TGI [3]: > 100 µM | GI50 [4]: 12.3 µM | TGI [4]: 27.9 µM | GI50 [5]: 6.53 µM | TGI [5]: 43.4 µM | GI50 [6]: 13.9 µM | TGI [6]: 32.1 µM | GI50 [7]: 14.4 µM | TGI [7]: 34.6 µM | GI50 [8]: 92.2 µM | TGI [8]: > 100 µM | GI50 [9]: 4.7 µM | TGI [9]: > 100 µM | GI50 [10]: 20.4 µM | TGI [10]: 47.9 µM | GI50 [11]: 25.5 µM | TGI [11]: > 100 µM | GI50 [12]: 4.45 µM | TGI [12]: 20.1 µM | GI50 [13]: 4.56 µM | TGI [13]: 12.3 µM | GI50 [14]: 23.4 µM | TGI [14]: > 100 µM | GI50 [15]: 4.1 µM | TGI [15]: 14 µM | GI50 [16]: 5.32 µM | TGI [16]: 20.9 µM | GI50 [18]: 4.68 µM | TGI [18]: 17.3 µM | GI50 [19]: 16.6 µM | TGI [19]: 96.5 µM | GI50 [20]: 16.5 µM | TGI [20]: 37.3 µM | GI50 [57]: 8.85 µM | TGI [57]: > 100 µM | GI50 [21]: 6.15 µM | TGI [21]: 24.1 µM | GI50 [22]: 9.53 µM | TGI [22]: 38.4 µM | GI50 [23]: 9.6 µM | TGI [23]: 25.7 µM | GI50 [24]: 15.4 µM | TGI [24]: 46.7 µM | GI50 [25]: 12.6 µM | TGI [25]: 30.8 µM | GI50 [26]: 11.2 µM | TGI [26]: > 100 µM | GI50 [27]: 12.8 µM | TGI [27]: 38.9 µM | GI50 [58]: 5.05 µM | TGI [58]: > 100 µM | GI50 [28]: 49.4 µM | TGI [28]: > 100 µM | GI50 [29]: 15 µM | TGI [29]: 42 µM | GI50 [30]: 17.3 µM | TGI [30]: 36.8 µM | GI50 [31]: 4.25 µM | TGI [31]: > 100 µM | GI50 [32]: 7.83 µM | TGI [32]: > 100 µM | GI50 [33]: 10.6 µM | TGI [33]: 24.2 µM | GI50 [34]: 13.7 µM | TGI [34]: 56.1 µM | GI50 [35]: 12.8 µM | TGI [35]: 29.6 µM | GI50 [36]: 4.91 µM | TGI [36]: 19.1 µM | GI50 [37]: 14.6 µM | TGI [37]: 32.9 µM | GI50 [38]: 9.66 µM | TGI [38]: 27.2 µM | GI50 [39]: 13.2 µM | TGI [39]: 64.5 µM | GI50 [40]: 12.9 µM | TGI [40]: 32.1 µM | GI50 [41]: 16.2 µM | TGI [41]: 55.1 µM | GI50 [42]: 4.57 µM | TGI [42]: 16.5 µM | GI50 [43]: 15.8 µM | TGI [43]: > 100 µM | GI50 [44]: 12 µM | TGI [44]: 30.6 µM | GI50 [45]: 19.4 µM | TGI [45]: > 100 µM | GI50 [46]: 16.1 µM | TGI [46]: 37.5 µM | GI50 [47]: 6.38 µM | TGI [47]: 18.9 µM | GI50 [49]: 12.5 µM | TGI [49]: 34.1 µM | GI50 [50]: 18.1 µM | TGI [50]: 94.1 µM | GI50 [51]: 17.9 µM | TGI [51]: 47.3 µM | GI50 [52]: 31.5 µM | TGI [52]: 94.4 µM | GI50 [53]: 14.2 µM | TGI [53]: > 100 µM | GI50 [54]: 4.72 µM | TGI [54]: 24.8 µM | GI50 [55]: 12.4 µM | TGI [55]: 30.4 µM | GI50 [56]: 8.93 µM | TGI [56]: > 100 µM
